Laboratory results reported in US20190367520A1, “NEW COMPOUND HAVING FGFR INHIBITORY ACTIVITY AND PREPARATION AND APPLICATION THEREOF” (SHANGHAI INSTITUTE OF MATERIA MEDICA, CHINESE ACADEMY OF …, priority 2016, published 2019).

Legend:
[1] = system: human lung cancer NCI-H1581 transplanted tumor; assay: Growth of transplanted tumor of human lung cancer NCI-H1581 in nude mice; format: in vivo, nude mouse; details: for T/C (%) relative tumor proliferation rate: d14; for body weight change of the animals / tumor volume change of the animals: po, 14 days
Protocol: The tumor tissue in the vigorous growth period was cut into about 1.5 mm^3, and inoculated subcutaneously in the right axilla of nude mouse under aseptic conditions. The diameter of transplanted subcutaneously tumor in the nude mouse was measured with a vernier caliper. The mice were randomly divided into groups after the tumor was grown to an average volume of about 90 mm 3. The compound No. 12 obtained in Example 12 was orally administered once a day at a dose of 100 mg/kg and 20 mg/kg, respectively, for 14 days, and the growth inhibition effects of compound NO. 12 on subcutaneously transplanted tumor in human lung cancer NCI-H1581 nude mouse were measured.
In the solvent control group, an equal amount of physiological saline was given. During the entire experiment, the diameter of the transplanted tumor was measured twice a week, and the body weight of the mice was weighed. The tumor volume (TV) is calculated as: TV=½×a×b^2, where a and b represent length and width, respectively. According to the measured results, the relative tumor volume (RTV) was calculated as: RTV=Vt/V0, wherein V0 was the tumor volume measured when the mouse was administered in cage (i.e. d0), Vt was the tumor volume at each measurement.
On the day of the end of the experiment, 2 hours after administration, blood samples and tumor tissues of each group were collected and preserved.

EGFR = EGFR (Homo sapiens, UniProt P00533); assay: Inhibitory activity on EGFR enzyme activity; format: biochemical
EGFR, sequence (P00533 25-1210, species assumed): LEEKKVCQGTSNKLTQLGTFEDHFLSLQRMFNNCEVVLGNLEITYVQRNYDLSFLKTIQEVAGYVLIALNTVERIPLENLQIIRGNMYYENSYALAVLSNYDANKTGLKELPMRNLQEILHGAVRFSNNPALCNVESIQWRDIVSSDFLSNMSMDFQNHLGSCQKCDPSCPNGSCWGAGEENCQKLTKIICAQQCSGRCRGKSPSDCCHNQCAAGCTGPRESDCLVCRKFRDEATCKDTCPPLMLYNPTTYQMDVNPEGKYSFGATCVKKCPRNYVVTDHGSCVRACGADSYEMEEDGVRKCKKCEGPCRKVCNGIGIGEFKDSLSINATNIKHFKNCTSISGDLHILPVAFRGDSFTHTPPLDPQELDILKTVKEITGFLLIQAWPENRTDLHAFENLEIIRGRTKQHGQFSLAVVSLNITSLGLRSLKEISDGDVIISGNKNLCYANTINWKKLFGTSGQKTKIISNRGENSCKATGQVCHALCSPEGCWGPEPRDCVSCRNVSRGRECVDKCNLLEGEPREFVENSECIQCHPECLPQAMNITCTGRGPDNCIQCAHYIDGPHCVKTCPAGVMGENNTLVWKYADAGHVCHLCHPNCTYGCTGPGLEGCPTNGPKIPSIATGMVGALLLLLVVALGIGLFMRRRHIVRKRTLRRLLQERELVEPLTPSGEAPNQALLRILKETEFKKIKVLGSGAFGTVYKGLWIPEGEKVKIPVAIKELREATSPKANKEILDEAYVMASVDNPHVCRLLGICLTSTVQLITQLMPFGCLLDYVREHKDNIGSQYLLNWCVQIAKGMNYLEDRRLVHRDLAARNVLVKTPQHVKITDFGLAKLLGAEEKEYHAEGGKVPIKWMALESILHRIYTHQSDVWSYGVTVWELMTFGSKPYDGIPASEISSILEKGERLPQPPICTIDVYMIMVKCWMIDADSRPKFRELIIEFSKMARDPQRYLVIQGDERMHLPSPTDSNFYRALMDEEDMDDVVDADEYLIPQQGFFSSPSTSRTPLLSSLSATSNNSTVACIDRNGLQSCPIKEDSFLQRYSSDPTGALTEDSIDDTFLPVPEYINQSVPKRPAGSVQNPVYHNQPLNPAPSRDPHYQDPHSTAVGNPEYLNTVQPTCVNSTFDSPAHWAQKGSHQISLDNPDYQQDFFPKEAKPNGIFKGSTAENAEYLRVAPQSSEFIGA

[2] = target: FGFR4 kinase domain recombinant protein (Homo sapiens, UniProt P22455); assay: FGFR4 enzyme activity at molecular level (ELISA, Poly(Glu,Tyr) 4:1 substrate)
FGFR4 kinase domain recombinant protein, sequence (P22455 467-755 limits assumed): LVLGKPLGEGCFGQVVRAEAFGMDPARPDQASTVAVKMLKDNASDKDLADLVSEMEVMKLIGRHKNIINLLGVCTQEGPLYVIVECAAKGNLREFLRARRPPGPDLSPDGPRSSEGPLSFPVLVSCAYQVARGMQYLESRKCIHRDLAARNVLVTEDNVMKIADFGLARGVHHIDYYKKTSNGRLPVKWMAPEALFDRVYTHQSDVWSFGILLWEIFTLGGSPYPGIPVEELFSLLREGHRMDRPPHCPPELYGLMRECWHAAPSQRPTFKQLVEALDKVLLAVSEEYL
Protocol: (§1) The plate was placed at 37° C. for 12-16 hours. The liquid in the well was discarded, the plate was washed, and the panel was washed three times with 200 μL/well of T-PBS (PBS containing 0.1% Tween-20) for 5 minutes each time.
(§2) 50 μL of ATP solution diluted with reaction buffer (50 mM HEPES pH 7.4, 50 mM MgCl2, 0.5 mM MnCl2, 0.2 mM Na3VO4, 1 mM DTT) was added to each well to a final concentration of 5 μM. The compound was diluted to a suitable concentration in DMSO, 1 μL/well or containing the corresponding concentration of DMSO (negative control well), and the FGFR1, FGFR4 kinase domain recombinant protein diluted in 49 μL of reaction buffer was added to initiate the reaction. Two control wells without ATP were required for each experiment. The reaction was carried out for 1 hour at 37° C. on a shaker (100 rpm). The plate was washed three times with T-PBS. Primary antibody, PY99 dilution was added at 100 μL/well and shaken at 37° C. for 0.5 hour. The plate was washed three times with T-PBS. Secondary antibody, horseradish peroxidase-labeled goat anti-mouse IgG dilution was added at 100 μL/well, and shaken at 37° C. for 0.5 hour. […] (Ultrasound was required for the dissolution of OPD, and the chromogenic solution needed to be prepared when used). 2 M H2SO4 was added at 50 μL/well to quench the reaction and a tunable wavelength microplate reader SPECTRA MAX 190 was used at a wavelength of 490 nm.
(§3) The inhibition rate of the sample was obtained by the following formula:
(§4) The IC50 value was obtained by four-parameter regression using the software attached to the microplate reader.

[3] = target: FGFR1 kinase domain recombinant protein (Homo sapiens, UniProt P11362); assay: FGFR1 enzyme activity at molecular level (ELISA, Poly(Glu,Tyr) 4:1 substrate)
FGFR1 kinase domain recombinant protein, sequence (P11362 478-767 limits assumed): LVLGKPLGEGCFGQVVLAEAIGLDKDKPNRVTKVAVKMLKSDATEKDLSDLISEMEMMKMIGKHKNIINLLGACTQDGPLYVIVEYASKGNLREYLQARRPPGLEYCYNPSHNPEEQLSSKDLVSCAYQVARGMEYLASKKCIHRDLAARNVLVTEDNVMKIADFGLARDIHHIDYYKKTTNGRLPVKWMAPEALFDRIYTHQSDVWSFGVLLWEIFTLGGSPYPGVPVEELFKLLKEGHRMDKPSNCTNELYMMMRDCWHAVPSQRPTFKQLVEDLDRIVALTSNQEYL
Protocol: as §1, §2, §3, §4

IC50 (EGFR): > 1000 nM
IC50 [2]: < 10 nM
IC50 [3]: < 10 nM
Structure (SMILES): C=CC(=O)N1CC[C@H](n2cc(-c3cc4cc(C)cc(OC)c4s3)c3c(N)ncnc32)C1 [NO. 12, (S)-1-(3-(4-amino-5-(7-methoxy-5-methylbenzothiophene-2-yl)-7H-pyrrole[2,3-d]pyrimidine-7-yl)pyrrolidine-1-yl)prop-2-en-1-one]
T/C (%) relative tumor proliferation rate ([1]; 20 mg/kg qd/14 po): 31.28%
body weight change of the animals ([1]; 20 mg/kg): 24.2%
tumor volume change of the animals ([1]; 20 mg/kg): 1500%
T/C (%) relative tumor proliferation rate ([1]; 100 mg/kg qd/14 po): 2.9%
body weight change of the animals ([1]; 100 mg/kg): −5.9%
tumor volume change of the animals ([1]; 100 mg/kg): 54.8%
EGFR inhibitory activity (in words) (EGFR; conclusion from Table 3): substantially no EGFR inhibitory activity
